{"source": "paper PMC5218480", "about": "(PLoS ONE, 2017)", "tested_on": "MV-4-11 cells", "assay": "Gene expression microarray analysis (Affymetrix PrimeView) and GSEA", "type": "cell-based, human", "design": "RFU PODN (11730768_x_at) / Fold change /veh PODN (11730768_x_at) / RFU LINC00158 (11744669_a_at) / Fold change /veh LINC00158 (11744669_a_at) / RFU DUSP10 (11751237_a_at) / Fold change /veh DUSP10 (11751237_a_at) / RFU ID3 (11757404_x_at) / Fold change /veh ID3 (11757404_x_at) / RFU PLEKHG5 (11737974_s_at) / Fold change /veh PLEKHG5 (11737974_s_at) / RFU LRRC4B (11730491_at) / Fold change /veh LRRC4B (11730491_at) / RFU GIMAP4 (11747438_a_at) / Fold change /veh GIMAP4 (11747438_a_at) / RFU KRT8 (11758183_x_at) / Fold change /veh KRT8 (11758183_x_at) / RFU CNN1 (11734310_a_at) / Fold change /veh CNN1 (11734310_a_at) / RFU VPS37D (11726825_at) / Fold change /veh VPS37D (11726825_at) / RFU C10orf10 (11716522_x_at) / Fold change /veh C10orf10 (11716522_x_at) / RFU KIR2DL2 /// KIR2DL4 /// KIR2DL5A /// KIR2DL5B /// KIR2DS1 /// KIR2DS2 /// KIR2DS3 /// KIR2DS4 /// KIR3DL3 /// KIR3DL3 /// KIR3DS1 (11738374_at) / Fold change /veh KIR2DL2 /// KIR2DL4 /// KIR2DL5A /// KIR2DL5B /// KIR2DS1 /// KIR2DS2 /// KIR2DS3 /// KIR2DS4 /// KIR3DL3 /// KIR3DL3 /// KIR3DS1 (11738374_at) / RFU C1QL1 (11718748_at) / Fold change /veh C1QL1 (11718748_at) / RFU TMPRSS4 (11747572_a_at) / Fold change /veh TMPRSS4 (11747572_a_at) / RFU HAMP (11756126_x_at) / Fold change /veh HAMP (11756126_x_at) / RFU RNFT2 (11725882_a_at) / Fold change /veh RNFT2 (11725882_a_at) / RFU NR4A2 (11747474_a_at) / Fold change /veh NR4A2 (11747474_a_at) / RFU ABCC12 (11746883_a_at) / Fold change /veh ABCC12 (11746883_a_at) / RFU TMEM136 (11760407_x_at) / Fold change /veh TMEM136 (11760407_x_at) / RFU CLDN22 /// WWC2 (11732394_at) / Fold change /veh CLDN22 /// WWC2 (11732394_at) / RFU HLA-DPB1 (11760878_x_at) / Fold change /veh HLA-DPB1 (11760878_x_at) / RFU SPINT1 (11716480_a_at) / Fold change /veh SPINT1 (11716480_a_at) / RFU GAP43 (11754022_s_at) / Fold change /veh GAP43 (11754022_s_at) / RFU A4GNT (11735810_at) / Fold change /veh A4GNT (11735810_at) / RFU PRB3 (11715151_x_at) / Fold change /veh PRB3 (11715151_x_at) / RFU TUBB4B (11761932_at) / Fold change /veh TUBB4B (11761932_at) / RFU CAPN14 (11732068_a_at) / Fold change /veh CAPN14 (11732068_a_at) / RFU TMCC2 (11721928_a_at) / Fold change /veh TMCC2 (11721928_a_at) / RFU IRGQ (11745062_a_at) / Fold change /veh IRGQ (11745062_a_at) / RFU FAM174B (11720279_a_at) / Fold change /veh FAM174B (11720279_a_at) / RFU TMPRSS4 (11748680_a_at) / Fold change /veh TMPRSS4 (11748680_a_at) / RFU FAM212B (11763350_a_at) / Fold change /veh FAM212B (11763350_a_at) / RFU PLEKHG5 (11743358_a_at) / Fold change /veh PLEKHG5 (11743358_a_at) / RFU ZSCAN30 (11745921_a_at) / Fold change /veh ZSCAN30 (11745921_a_at) / RFU CMKLR1 (11741424_a_at) / Fold change /veh CMKLR1 (11741424_a_at) / RFU LOC101060620 /// MAPK8IP1 (11723275_at) / Fold change /veh LOC101060620 /// MAPK8IP1 (11723275_at) / RFU SPTSSB (11747773_x_at) / Fold change /veh SPTSSB (11747773_x_at) / RFU PRSS12 (11739890_at) / Fold change /veh PRSS12 (11739890_at) / RFU BIN1 (11741810_x_at) / Fold change /veh BIN1 (11741810_x_at) / RFU WNT11 (11732464_a_at) / Fold change /veh WNT11 (11732464_a_at) / RFU C10orf10 (11716521_a_at) / Fold change /veh C10orf10 (11716521_a_at) / RFU C5orf56 (11738089_at) / Fold change /veh C5orf56 (11738089_at) / RFU CYB561 (11721691_x_at) / Fold change /veh CYB561 (11721691_x_at) / RFU ANKRD19P (11752326_a_at) / Fold change /veh ANKRD19P (11752326_a_at) / RFU OR2T12 /// OR2T33 /// OR2T8 (11738714_s_at) / Fold change /veh OR2T12 /// OR2T33 /// OR2T8 (11738714_s_at) / RFU VCAN (11748164_a_at) / Fold change /veh VCAN (11748164_a_at) / RFU JSRP1 (11732532_at) / Fold change /veh JSRP1 (11732532_at) / RFU KRTAP10-11 (11738290_x_at) / Fold change /veh KRTAP10-11 (11738290_x_at) / RFU MYO3A (11730013_a_at) / Fold change /veh MYO3A (11730013_a_at) / RFU EBF3 (11725865_a_at) / Fold change /veh EBF3 (11725865_a_at) / RFU CAMK2N1 (11719241_x_at) / Fold change /veh CAMK2N1 (11719241_x_at) / RFU C5orf56 (11738088_a_at) / Fold change /veh C5orf56 (11738088_a_at) / RFU OLFML3 (11715873_a_at) / Fold change /veh OLFML3 (11715873_a_at) / RFU LOC100653217 /// NTM (11731650_a_at) / Fold change /veh LOC100653217 /// NTM (11731650_a_at) / RFU MAPK11 (11762145_a_at) / Fold change /veh MAPK11 (11762145_a_at) / RFU FIZ1 (11724087_x_at) / Fold change /veh FIZ1 (11724087_x_at) / RFU OASL (11726364_x_at) / Fold change /veh OASL (11726364_x_at) / RFU SOX15 (11748057_x_at) / Fold change /veh SOX15 (11748057_x_at) / RFU CD79A (11719716_a_at) / Fold change /veh CD79A (11719716_a_at) / RFU HIST1H1D (11736915_at) / Fold change /veh HIST1H1D (11736915_at) / RFU CASKIN2 (11723855_a_at) / Fold change /veh CASKIN2 (11723855_a_at) / RFU LOC730098 (11760151_x_at) / Fold change /veh LOC730098 (11760151_x_at) / RFU OR4N2 (11742367_at) / Fold change /veh OR4N2 (11742367_at) / RFU PRRT2 (11749266_a_at) / Fold change /veh PRRT2 (11749266_a_at) / RFU SNX32 (11753110_a_at) / Fold change /veh SNX32 (11753110_a_at) / RFU CDHR5 (11726645_a_at) / Fold change /veh CDHR5 (11726645_a_at) / RFU RCAN1 (11760418_a_at) / Fold change /veh RCAN1 (11760418_a_at) / RFU FAM167A (11723789_a_at) / Fold change /veh FAM167A (11723789_a_at) / RFU FAM26E (11764081_at) / Fold change /veh FAM26E (11764081_at) / RFU ISYNA1 (11749810_s_at) / Fold change /veh ISYNA1 (11749810_s_at) / RFU ACY1 (11761880_at) / Fold change /veh ACY1 (11761880_at) / RFU 11764098_at / Fold change /veh 11764098_at / RFU SAMD14 (11745864_x_at) / Fold change /veh SAMD14 (11745864_x_at) / RFU NPB (11741838_a_at) / Fold change /veh NPB (11741838_a_at) / RFU TMPRSS6 (11731388_a_at) / Fold change /veh TMPRSS6 (11731388_a_at) / RFU KRTAP10-2 (11738614_at) / Fold change /veh KRTAP10-2 (11738614_at) / RFU ARHGAP8 /// PRR5-ARHGAP8 (11727945_x_at) / Fold change /veh ARHGAP8 /// PRR5-ARHGAP8 (11727945_x_at) / RFU KRTAP5-7 /// NADSYN1 (11734609_at) / Fold change /veh KRTAP5-7 /// NADSYN1 (11734609_at) / RFU RASL12 (11751679_a_at) / Fold change /veh RASL12 (11751679_a_at) / RFU CDKN2B (11736163_a_at) / Fold change /veh CDKN2B (11736163_a_at) / RFU PRF1 (11729649_at) / Fold change /veh PRF1 (11729649_at) / RFU, ZNF638 /// ZNF638-IT1 / Fold change vs veh, ZNF638 /// ZNF638-IT1 / RFU, PANK3 / Fold change vs veh, PANK3 / RFU, SH3YL1 / Fold change vs veh, SH3YL1 / RFU, ZEB2 / Fold change vs veh, ZEB2 / RFU, NRIP1 / Fold change vs veh, NRIP1 / RFU, PTTG1IP / Fold change vs veh, PTTG1IP / RFU, CAPN2 / Fold change vs veh, CAPN2 / RFU, MED14 / Fold change vs veh, MED14 / RFU, SNORA58 / Fold change vs veh, SNORA58 / RFU, C1orf63 / Fold change vs veh, C1orf63 / RFU, LRRFIP1 / Fold change vs veh, LRRFIP1 / RFU, NDUFAF7 / Fold change vs veh, NDUFAF7 / RFU, SLC12A2 / Fold change vs veh, SLC12A2 / RFU, IBTK / Fold change vs veh, IBTK / RFU, ESF1 / Fold change vs veh, ESF1 / Fold change vs veh, TMEM50B / RFU, TAOK1 / Fold change vs veh, TAOK1 / RFU, ACBD3 / Fold change vs veh, ACBD3 / RFU, TMA16 / Fold change vs veh, TMA16 / RFU, RWDD3 / Fold change vs veh, RWDD3 / RFU, BCAT1 / Fold change vs veh, BCAT1 / RFU, EDEM3 / Fold change vs veh, EDEM3 / RFU, TMEM33 / Fold change vs veh, TMEM33 / RFU, WDR75 / Fold change vs veh, WDR75 / RFU, AHCTF1 / Fold change vs veh, AHCTF1 / RFU, TFRC / Fold change vs veh, TFRC / RFU, ZDHHC17 / Fold change vs veh, ZDHHC17 / RFU, NOM1 / Fold change vs veh, NOM1 / RFU, ARL8B / Fold change vs veh, ARL8B / RFU, ZBTB11 / Fold change vs veh, ZBTB11 / RFU, TAMM41 / Fold change vs veh, TAMM41 / RFU, KIAA1704 /// LOC100996395 / Fold change vs veh, KIAA1704 /// LOC100996395 / RFU, ING1 / Fold change vs veh, ING1 / RFU, TRMT61B / Fold change vs veh, TRMT61B / RFU, FUBP3 / Fold change vs veh, FUBP3 / RFU, TP53 / Fold change vs veh, TP53 / RFU, TNKS2 / Fold change vs veh, TNKS2 / RFU, ZFP14 / Fold change vs veh, ZFP14 / RFU, ACTR2 / Fold change vs veh, ACTR2 / RFU, PPP3R1 / Fold change vs veh, PPP3R1 / RFU, PIK3R1 / Fold change vs veh, PIK3R1 / RFU, HNRNPA1 / Fold change vs veh, HNRNPA1 / RFU, RNF170 / Fold change vs veh, RNF170 / RFU, ZNF28 / Fold change vs veh, ZNF28 / RFU, RNGTT / Fold change vs veh, RNGTT / RFU, OGT / Fold change vs veh, OGT / RFU, BRD1 / Fold change vs veh, BRD1 / RFU, MARS / Fold change vs veh, MARS / RFU, ZNF655 / Fold change vs veh, ZNF655 / RFU, FAHD1 / Fold change vs veh, FAHD1 / RFU, BDP1 / Fold change vs veh, BDP1 / RFU, LRRCC1 / Fold change vs veh, LRRCC1 / RFU, ARID1A / Fold change vs veh, ARID1A / RFU, ZNF146 / Fold change vs veh, ZNF146 / RFU, ZNF330 / Fold change vs veh, ZNF330 / RFU, GPN3 / Fold change vs veh, GPN3 / RFU, C9orf123 / Fold change vs veh, C9orf123 / RFU, N4BP2L2 / Fold change vs veh, N4BP2L2 / RFU, ARFIP1 / Fold change vs veh, ARFIP1 / RFU, FAM179B / Fold change vs veh, FAM179B / RFU, BCL10 / Fold change vs veh, BCL10 / RFU, UHRF1BP1L / Fold change vs veh, UHRF1BP1L / RFU, BET1 / Fold change vs veh, BET1 / RFU, CNOT2 / Fold change vs veh, CNOT2 / RFU, ZNF268 / Fold change vs veh, ZNF268 / Fold change vs veh, ZNF507 / RFU, DGCR2 / Fold change vs veh, DGCR2 / RFU, WDSUB1 / Fold change vs veh, WDSUB1 / Fold change vs veh, HSP90B1 /// MIR3652 / RFU, ADSS / Fold change vs veh, ADSS / RFU, GK / Fold change vs veh, GK / RFU, ZNF148 / Fold change vs veh, ZNF148 / RFU, TAF9 / Fold change vs veh, TAF9 / RFU, SLC1A5 / Fold change vs veh, SLC1A5 / RFU, SLMO2 / Fold change vs veh, SLMO2 / RFU, ABCC4 / Fold change vs veh, ABCC4 / RFU, LOC101060439 /// RAP1B / Fold change vs veh, LOC101060439 /// RAP1B / RFU, RFX7 / Fold change vs veh, RFX7 / RFU, GTPBP10 / Fold change vs veh, GTPBP10 / RFU, CNEP1R1 / Fold change vs veh, CNEP1R1 / RFU, BIVM-ERCC5 /// ERCC5 / Fold change vs veh, BIVM-ERCC5 /// ERCC5 / RFU, ILF3 / Fold change vs veh, ILF3 / RFU 11762660_at / Fold change /veh 11762660_at / RFU VCAN (11757783_s_at) / Fold change /veh VCAN (11757783_s_at) / RFU DDX43 (11728927_at) / Fold change /veh DDX43 (11728927_at) / RFU KRT8 (11758188_x_at) / Fold change /veh KRT8 (11758188_x_at) / RFU NKD1 (11759106_at) / Fold change /veh NKD1 (11759106_at) / RFU SRD5A1 (11742802_a_at) / Fold change /veh SRD5A1 (11742802_a_at) / RFU TPSAB1 /// TPSB2 (11721975_s_at) / Fold change /veh TPSAB1 /// TPSB2 (11721975_s_at) / RFU GSTM3 (11746129_a_at) / Fold change /veh GSTM3 (11746129_a_at) / RFU IL23R (11737362_x_at) / Fold change /veh IL23R (11737362_x_at) / RFU TMEM51 (11727254_a_at) / Fold change /veh TMEM51 (11727254_a_at) / RFU PIWIL2 (11732686_x_at) / Fold change /veh PIWIL2 (11732686_x_at) / RFU ORM1 (11744905_x_at) / Fold change /veh ORM1 (11744905_x_at) / RFU CCDC152 (11743942_at) / Fold change /veh CCDC152 (11743942_at) / RFU ECM1 (11717891_a_at) / Fold change /veh ECM1 (11717891_a_at) / RFU IL23R (11748794_a_at) / Fold change /veh IL23R (11748794_a_at) / RFU TNFAIP8L3 (11732012_x_at) / Fold change /veh TNFAIP8L3 (11732012_x_at) / RFU MBOAT4 (11741988_at) / Fold change /veh MBOAT4 (11741988_at) / RFU 11764193_at / Fold change /veh 11764193_at / RFU TMEM53 (11763286_at) / Fold change /veh TMEM53 (11763286_at) / RFU MAGEB2 (11727129_at) / Fold change /veh MAGEB2 (11727129_at) / RFU TMEM200A (11744735_a_at) / Fold change /veh TMEM200A (11744735_a_at) / RFU CCDC152 (11751479_a_at) / Fold change /veh CCDC152 (11751479_a_at) / RFU FAM211A (11726209_a_at) / Fold change /veh FAM211A (11726209_a_at) / RFU RGS16 (11746705_a_at) / Fold change /veh RGS16 (11746705_a_at) / RFU VCAN (11755009_s_at) / Fold change /veh VCAN (11755009_s_at) / RFU RHOB (11743442_s_at) / Fold change /veh RHOB (11743442_s_at) / RFU RGS16 (11720943_a_at) / Fold change /veh RGS16 (11720943_a_at) / RFU RGS16 (11720944_at) / Fold change /veh RGS16 (11720944_at) / RFU, VPS4B / Fold change vs veh, VPS4B / RFU, CREB1 / Fold change vs veh, CREB1 / RFU, DNAJC13 / Fold change vs veh, DNAJC13 / RFU, GNAQ / Fold change vs veh, GNAQ / RFU, CDK5R1 / Fold change vs veh, CDK5R1 / RFU, ZRANB3 / Fold change vs veh, ZRANB3 / RFU, CUL4A / Fold change vs veh, CUL4A / RFU, CCNY / Fold change vs veh, CCNY / RFU, UFL1 / Fold change vs veh, UFL1 / RFU, COG3 / Fold change vs veh, COG3 / RFU, DIAPH2 / Fold change vs veh, DIAPH2 / RFU, SKA2 / Fold change vs veh, SKA2 / RFU, AFF3 / Fold change vs veh, AFF3 / RFU, LMF1 / Fold change vs veh, LMF1 / RFU, IPO11 / Fold change vs veh, IPO11 / RFU, DFFB / Fold change vs veh, DFFB / RFU, FOXP1 / Fold change vs veh, FOXP1 / RFU, CARD8 / Fold change vs veh, CARD8 / RFU, STRN3 / Fold change vs veh, STRN3 / RFU, ADK / Fold change vs veh, ADK / RFU, RASSF2 / Fold change vs veh, RASSF2 / RFU, WIPF1 / Fold change vs veh, WIPF1 / RFU, LARP1B / Fold change vs veh, LARP1B / RFU, RASA1 / Fold change vs veh, RASA1 / RFU, RB1 / Fold change vs veh, RB1 / RFU, PPFIA1 / Fold change vs veh, PPFIA1 / RFU, MAT2A / Fold change vs veh, MAT2A / RFU, CCT5 / Fold change vs veh, CCT5 / RFU, WDR92 / Fold change vs veh, WDR92 / RFU, CUX1 / Fold change vs veh, CUX1 / RFU, TTC7A / Fold change vs veh, TTC7A / RFU, TMEM135 / Fold change vs veh, TMEM135 / RFU, DEPTOR / Fold change vs veh, DEPTOR / RFU, CPM / Fold change vs veh, CPM / RFU, DNAJB6 / Fold change vs veh, DNAJB6 / RFU, CACNA2D3 / Fold change vs veh, CACNA2D3 / RFU, DTX4 / Fold change vs veh, DTX4 / RFU, TFCP2 / Fold change vs veh, TFCP2 / RFU, GMCL1 /// GMCL1P1 / Fold change vs veh, GMCL1 /// GMCL1P1 / RFU, AEBP2 / Fold change vs veh, AEBP2 / RFU, SNHG1 /// SNORD22 /// SNORD25 /// SNORD26 /// SNORD27 /// SNORD28 /// SNORD29 /// SNORD31 / Fold change vs veh, SNHG1 /// SNORD22 /// SNORD25 /// SNORD26 /// SNORD27 /// SNORD28 /// SNORD29 /// SNORD31 / Fold change (Aza/veh), C12orf56 (ProbeSet 11735607_a_at) / Fold change (ACY-1035/veh), C12orf56 (ProbeSet 11735607_a_at) / Fold change (Aza/veh), FGFR1OP (ProbeSet 11751329_s_at) / Fold change (ACY-1035/veh), FGFR1OP (ProbeSet 11751329_s_at) / Fold change (Aza/veh), VPS36 (ProbeSet 11739960_a_at) / Fold change (ACY-1035/veh), VPS36 (ProbeSet 11739960_a_at) / RFU SYPL1 (11715823_x_at) / Fold change /veh SYPL1 (11715823_x_at) / RFU IGFBP7 (11715501_s_at) / Fold change /veh IGFBP7 (11715501_s_at) / RFU REEP3 (11722064_at) / Fold change /veh REEP3 (11722064_at) / RFU IGLL1 (11728026_x_at) / Fold change /veh IGLL1 (11728026_x_at): dose or concentration left out as unconfirmed", "conditions": "ProbeSet 11732306_x_at; LIST D", "data": [{"smiles": "Nc1ccc(-c2cccs2)cc1NC(=O)c1ccc2c(c1)cc(C1CC1)n2CCN1CCOCC1", "note": "[ACY-1035]", "values": [{"measurement": "Fold change vs veh, CREB1", "result": 0.87}]}]}
